According to PMC9090415, “Discovery of small molecule inhibitors of Plasmodium falciparum apicoplast DNA polymerase” (Journal of Enzyme Inhibition and Medicinal Chemistry, 2022):

Biological target: P. falciparum apicoplast DNA polymerase (Pf-apPOL) (Plasmodium falciparum, UniProt Q8ILY1)
Assay: Fluorescence-based high-throughput DNA polymerase assay (molecular beacon), primary screen and dose-response
Type: biochemical
Conditions: for DNA Pol: 90 min, 10 µM
Method: The HT assay employs a molecular beacon, a stem-loop DNA template with a Cy3 dye and the Black Hole Quencher on the 3′ and 5′ ends of the DNA, respectively. Pf-apPOL concentration is based on a calculated absorptivity of ε280 = 56750 M^−1 cm^−1. Reactions were carried out at 25 °C, using Corning 3575 […] (well-volume, 20 µL). Assays testing for compound inhibition composed of reaction buffer (pH 7.9 in 50 mM potassium acetate, 20 mM Tris-acetate and 10 mM magnesium acetate), Pf-apPOL (20 nM), DNA substrate (20 nM), dNTPs (6 µM), and compound (10 µM in DMSO). The DNA and nucleotide substrates (dNTPs) were at concentrations of 20 nM and 6 µM, respectively, in the assay. Pf-apPOL was incubated in the reaction buffer with dNTPs and the compound of interest (10 µM, in the assay) at 25 °C for 10 min. The DNA substrate was then added and the reaction was allowed to proceed for 90 min at 25 °C.
Each assay plate contained 16 negative controls (no Pf-apPOL, DMSO present) and 16 positive controls (Pf-apPOL present, no DMSO). The fluorescence of each well was determined using a BioTek Synergy Neo fluorescence plate reader using excitation and emission wavelengths of 555 and 570 nm, respectively.
In the above, Min is the average of fluorescence emission of the negative controls (substrate only), Max the average fluorescence emission from the positive controls (enzyme + substrate), and Test the emission from the assays in the presence of compounds (enzyme + compound + substrates). […] […] The IC50 of each compound was determined using Equation (2): (2) IC50= Vmax/(1+ (I/IC50)^n)
In the above, n measures cooperativity, with n > 1 indicating synergistic binding of more than a single molecule of the compound.
To identify apPOL inhibitors we utilised our previously developed high-throughput DNA polymerase assay. The HT assay is based on a molecular beacon DNA template that forms a stem-loop with a Cy3 dye and the Black Hole Quencher on the 3′ and 5′ ends of the DNA, respectively. DNA polymerase activity extends an annealed primer through the stem region, displacing the fluorophore from the quencher, thereby increasing its fluorescence (Figure 1(A)). The assay accurately recapitulates the kinetic behaviour of apPOL, as measured through more conventional low-throughput gel-based assays. The Z′ factor for the assay described here was 0.9 across all plates (data not shown).
Figure 1. High-throughput screening. (A) The fluorescent-based DNA polymerase assay used to screen the compound libraries. The DNA template strand is a hairpin loop with a primer annealed to the loop. The 3’ end of the primer is 11 bases away from the 6 bp duplex. Strand displacement activity of the DNA polymerase separates the Cy3 dye from the Black hole quencher leading to an increase in fluorescent signal. (B) The high-throughput assay workflow. The DNA polymerase is incubated with […] compound for 10 min prior to addition of the hairpin substrate. The reaction is quenched at 3 different time points and the fluorescent signal is measured and % inhibition is determined using the provided equation.

[1] = primary screen value of the 186 hits, unit not given

P. falciparum apicoplast DNA polymerase (Pf-apPOL), sequence (Q8ILY1 entry or part of it): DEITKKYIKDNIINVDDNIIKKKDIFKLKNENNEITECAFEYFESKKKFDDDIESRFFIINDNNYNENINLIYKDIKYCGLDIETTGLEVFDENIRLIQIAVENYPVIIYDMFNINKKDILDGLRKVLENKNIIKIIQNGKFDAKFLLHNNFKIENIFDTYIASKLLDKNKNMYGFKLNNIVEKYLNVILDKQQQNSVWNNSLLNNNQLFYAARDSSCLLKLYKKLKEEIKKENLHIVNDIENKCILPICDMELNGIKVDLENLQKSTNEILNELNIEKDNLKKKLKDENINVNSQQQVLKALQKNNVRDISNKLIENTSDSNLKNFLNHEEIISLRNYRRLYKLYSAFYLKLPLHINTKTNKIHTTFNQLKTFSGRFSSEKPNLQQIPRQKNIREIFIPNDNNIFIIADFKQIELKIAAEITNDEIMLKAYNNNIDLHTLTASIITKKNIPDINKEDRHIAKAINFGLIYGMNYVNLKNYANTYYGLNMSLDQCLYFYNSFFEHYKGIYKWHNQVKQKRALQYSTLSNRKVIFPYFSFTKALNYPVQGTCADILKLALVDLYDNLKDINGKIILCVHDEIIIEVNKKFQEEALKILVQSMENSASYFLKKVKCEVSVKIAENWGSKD

Oc1cccc2ccc(/C=C/c3ccc4c(c3)OCO4)nc12 [KU0025984]
% inhibition Apo pol 10' (DRC-1, concentration 2.5): -0.2183% | % inhibition Apo pol 10' (DRC-1, concentration 5): 11.208% | % inhibition Apo pol 10' (DRC-1, concentration 10): 38.8453% | % inhibition Apo pol 10' (DRC-1, concentration 20): 79.6836% | % inhibition Apo pol 10' (DRC-1, concentration 40): 89.9069% | % inhibition Apo pol 10' (DRC-1, concentration 80): 93.1389% | % inhibition Apol 90' (DRC-1, 90', concentration 2.5): -7.534% | % inhibition Apol 90' (DRC-1, 90', concentration 5): 4.814% | % inhibition Apol 90' (DRC-1, 90', concentration 10): 24.6628% | % inhibition Apol 90' (DRC-1, 90', concentration 20): 70.7764% | % inhibition Apol 90' (DRC-1, 90', concentration 40): 83.7672% | % inhibition Apol 90' (DRC-1, 90', concentration 80): 87.8493% | % inhibition apPOL 180' (DRC-1, 180', concentration 2.5): -11.2426% | % inhibition apPOL 180' (DRC-1, 180', concentration 5): -1.027% | % inhibition apPOL 180' (DRC-1, 180', concentration 10): 13.0398% | % inhibition apPOL 180' (DRC-1, 180', concentration 20): 59.792% | % inhibition apPOL 180' (DRC-1, 180', concentration 40): 76.8882% | % inhibition apPOL 180' (DRC-1, 180', concentration 80): 82.4453% | % inhibition Apo pol 5' (DRC-2, 5', concentration 2.5 (unit not given)): 14% | % inhibition Apol 40' (DRC-2, 40', concentration 2.5 (unit not given)): 14% | % inhibition ApPOL 90' (DRC-2, 90', concentration 20 (unit not given)): 70% | % inhibition apPOL 180' (DRC-2, 180', concentration 5 (unit not given)): 12% | % inhibition apPOL 180' (DRC-2, 180', concentration 40 (unit not given)): 70% | % inhibition Apo pol 5' (DRC-2, 5', concentration 2.5): 14% | % inhibition Apo pol 5' (DRC-2, 5', concentration 5): 21% | % inhibition Apo pol 5' (DRC-2, 5', concentration 10): 38% | % inhibition Apo pol 5' (DRC-2, 5', concentration 20): 50% | % inhibition Apo pol 5' (DRC-2, 5', concentration 40): 52% | % inhibition Apo pol 5' (DRC-2, 5', concentration 80): 53% | % inhibition Apol 40' (DRC-2, 40', concentration 2.5): 14% | % inhibition Apol 40' (DRC-2, 40', concentration 5): 25% | % inhibition Apol 40' (DRC-2, 40', concentration 10): 47% | % inhibition Apol 40' (DRC-2, 40', concentration 20): 69% | % inhibition Apol 40' (DRC-2, 40', concentration 40): 71% | % inhibition Apol 40' (DRC-2, 40', concentration 80): 74% | % inhibition ApPOL 90' (DRC-2, 90', concentration 2.5): 12% | % inhibition ApPOL 90' (DRC-2, 90', concentration 2.5 (unit not given)): 12% | % inhibition ApPOL 90' (DRC-2, 90', concentration 5): 24% | % inhibition ApPOL 90' (DRC-2, 90', concentration 10): 45% | % inhibition ApPOL 90' (DRC-2, 90', concentration 20): 70% | % inhibition ApPOL 90' (DRC-2, 90', concentration 40): 72% | % inhibition ApPOL 90' (DRC-2, 90', concentration 80): 77% | % inhibition apPOL 180' (DRC-2, 180', concentration 2.5): -0.452% | % inhibition apPOL 180' (DRC-2, 180', concentration 5): 12% | % inhibition apPOL 180' (DRC-2, 180', concentration 10): 35% | % inhibition apPOL 180' (DRC-2, 180', concentration 20): 66% | % inhibition apPOL 180' (DRC-2, 180', concentration 40): 70% | % inhibition apPOL 180' (DRC-2, 180', concentration 80): 78% | DNA Pol [1]: 45 | DNA Pol (primary screen value, head "DNA Pol", unit not given): 45

O=C1N=C(Nc2cccc(Cl)c2Cl)S/C1=C\c1ccco1 [Molecule 3]
IC50 (supplemental file 2, sheet IC50 nontoxic compounds, Pf-apPOL): 4.99 µM

Cc1cccc(-c2nnc3ccc(NS(=O)(=O)c4ccc(C)c(C)c4)nn23)c1 [Molecule 40, Cc1cccc(c1)c1nnc2n1nc(cc2)NS(=O)(=O)c1ccc(c(c1)C)C]
% inhibition Apo pol 10' (DRC-1, concentration 2.5): 17.5333% | % inhibition Apo pol 10' (DRC-1, concentration 5): 15.8571% | % inhibition Apo pol 10' (DRC-1, concentration 10): 58.8718% | % inhibition Apo pol 10' (DRC-1, concentration 20): 64.4117% | % inhibition Apo pol 10' (DRC-1, concentration 40): 83.8171% | % inhibition Apo pol 10' (DRC-1, concentration 80): 87.6455% | % inhibition Apol 90' (DRC-1, 90', concentration 2.5): 8.645% | % inhibition Apol 90' (DRC-1, 90', concentration 5): 6.674% | % inhibition Apol 90' (DRC-1, 90', concentration 10): 42.202% | % inhibition Apol 90' (DRC-1, 90', concentration 20): 48.6788% | % inhibition Apol 90' (DRC-1, 90', concentration 40): 74.666% | % inhibition Apol 90' (DRC-1, 90', concentration 80): 86.8335% | % inhibition apPOL 180' (DRC-1, 180', concentration 2.5): 2.98% | % inhibition apPOL 180' (DRC-1, 180', concentration 5): 3.293% | % inhibition apPOL 180' (DRC-1, 180', concentration 10): 32.359% | % inhibition apPOL 180' (DRC-1, 180', concentration 20): 37.8584% | % inhibition apPOL 180' (DRC-1, 180', concentration 40): 67.3017% | % inhibition apPOL 180' (DRC-1, 180', concentration 80): 87.5255% | % inhibition Apo pol 5' (DRC-2, 5', concentration 2.5): 5% | % inhibition Apo pol 5' (DRC-2, 5', concentration 5): 15% | % inhibition Apo pol 5' (DRC-2, 5', concentration 10): 22% | % inhibition Apo pol 5' (DRC-2, 5', concentration 20): 26% | % inhibition Apo pol 5' (DRC-2, 5', concentration 40): 22% | % inhibition Apo pol 5' (DRC-2, 5', concentration 80): 17% | % inhibition Apol 40' (DRC-2, 40', concentration 2.5): 4.3% | % inhibition Apol 40' (DRC-2, 40', concentration 5): 18% | % inhibition Apol 40' (DRC-2, 40', concentration 10): 30% | % inhibition Apol 40' (DRC-2, 40', concentration 20): 44% | % inhibition Apol 40' (DRC-2, 40', concentration 40): 51% | % inhibition Apol 40' (DRC-2, 40', concentration 80): 53% | % inhibition ApPOL 90' (DRC-2, 90', concentration 2.5): 3.29% | % inhibition ApPOL 90' (DRC-2, 90', concentration 5): 17% | % inhibition ApPOL 90' (DRC-2, 90', concentration 10): 29% | % inhibition ApPOL 90' (DRC-2, 90', concentration 20): 46% | % inhibition ApPOL 90' (DRC-2, 90', concentration 40): 57% | % inhibition ApPOL 90' (DRC-2, 90', concentration 80): 62% | % inhibition apPOL 180' (DRC-2, 180', concentration 2.5): -0.478% | % inhibition apPOL 180' (DRC-2, 180', concentration 5): 11% | % inhibition apPOL 180' (DRC-2, 180', concentration 10): 23% | % inhibition apPOL 180' (DRC-2, 180', concentration 20): 40% | % inhibition apPOL 180' (DRC-2, 180', concentration 40): 60% | % inhibition apPOL 180' (DRC-2, 180', concentration 80): 68% | % inhibition ApPOL 90' (conc. 5, 90', DRC-2): 17% | % inhibition Apo pol 5' (conc. 10, 5', DRC-2): 22% | % inhibition Apo pol 5' (conc. 40, 5', DRC-2): 22% | % inhibition Apo pol 5' (conc. 80, 5', DRC-2): 17% | DNA Pol (primary screen value by plate and well): 50 | DNA Pol [1]: 50
